Source: US7888363B2, “Viral polymerase inhibitors” (Boehringer Ingelheim International GmbH, priority 2003, dated 2011)

molecular target: hepatitis C virus RNA dependant polymerase (NS5B) (Hepatitis C virus genotype 1b, UniProt P26663); assay: Inhibition of NS5B RNA dependent RNA polymerase activity; type: biochemical; settings: Table 1; HCV NS5B polymerase
Protocol: A suitable assay is described in the examples.
Inhibition of NS5B RNA Dependent RNA Polymerase Activity
The compounds of the invention were tested for inhibitory activity against the hepatitis C virus RNA dependant polymerase (NS5B), according to protocol described in WO 03/010141

Sequence of hepatitis C virus RNA dependant polymerase (NS5B) (P26663 2420-3010): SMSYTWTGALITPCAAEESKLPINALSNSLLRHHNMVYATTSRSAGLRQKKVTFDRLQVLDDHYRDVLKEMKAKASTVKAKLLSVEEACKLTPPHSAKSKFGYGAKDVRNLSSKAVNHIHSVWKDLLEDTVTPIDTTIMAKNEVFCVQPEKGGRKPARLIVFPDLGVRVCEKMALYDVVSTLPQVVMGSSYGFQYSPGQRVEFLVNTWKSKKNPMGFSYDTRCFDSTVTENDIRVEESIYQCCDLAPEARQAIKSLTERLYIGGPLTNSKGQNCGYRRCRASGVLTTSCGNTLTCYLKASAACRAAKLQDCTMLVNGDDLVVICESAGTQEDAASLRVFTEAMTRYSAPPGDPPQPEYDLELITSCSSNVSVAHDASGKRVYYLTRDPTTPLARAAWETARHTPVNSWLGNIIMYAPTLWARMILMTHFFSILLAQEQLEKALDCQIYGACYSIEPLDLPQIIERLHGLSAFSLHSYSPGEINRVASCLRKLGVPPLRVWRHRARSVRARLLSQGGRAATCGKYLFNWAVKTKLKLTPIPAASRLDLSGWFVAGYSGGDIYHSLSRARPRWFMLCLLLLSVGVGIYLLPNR

| Structure (SMILES) | IC50 |
| --- | --- |
| CN1CCN(C(=O)Cn2c(-c3ccc(Br)cn3)c(C3CCCCC3)c3ccc(C(=O)O)cc32)CC1 [Example 1134] | 0.2 to 1 µM |
| O=C(O)CN1CCN(C(=O)Cn2c(-c3ccoc3)c(C3CCCCC3)c3ccc(C(=O)O)cc32)CC1 [Example 1074] | < 0.2 µM |
| CNC(=O)Cn1c(-c2ccoc2)c(C2CCCCC2)c2ccc(C(=O)O)cc21 [Example 1062] | 0.2 to 1 µM |
| CCN(CC)C1CCN(C(=O)Cn2c(-c3ccoc3)c(C3CCCCC3)c3ccc(C(=O)O)cc32)C1 (centres unmarked) [Example 1016] | < 0.2 µM |
| O=C(O)c1ccc2c(C3CCCCC3)c(-c3ccoc3)n(CC(=O)N3CCOCC3)c2c1 [Example 1097] | < 0.2 µM |
| O=C(Cn1c(-c2ccc(Br)cn2)c(C2CCCCC2)c2ccc(C(=O)O)cc21)NNC(=O)NC[C@H]1CC[C@H](C(=O)O)CC1 [Example 1141] | 0.2 to 1 µM |
| CN(CCc1ccccn1)C(=O)Cn1c(-c2ccoc2)c(C2CCCCC2)c2ccc(C(=O)O)cc21 [Example 1103] | < 0.2 µM |
| CN1CCC(N(C)C(=O)Cn2c(-c3ccoc3)c(C3CCCCC3)c3ccc(C(=O)O)cc32)CC1 [Example 1104] | < 0.2 µM |
| CN(C)C(=O)Cn1c(-c2ccoc2)c(C2CCCC2)c2ccc(C(=O)O)cc21 [Example 1044] | < 0.2 µM |
| O=C(O)c1ccc2c(C3CCCC3)c(-c3ccccn3)n(CC(=O)N3CCCC3)c2c1 [Example 1086] | 0.2 to 1 µM |
| O=C(O)c1ccc2c(C3CCCCC3)c(-c3cccs3)n(CC(=O)N3CCC(N4CCCC4)CC3)c2c1 [Example 1034] | < 0.2 µM |
| O=C(O)CCNC(=O)Cn1c(-c2ccoc2)c(C2CCCCC2)c2ccc(C(=O)O)cc21 [Example 1073] | < 0.2 µM |
| CC(C)(NC(=O)Cn1c(-c2ccoc2)c(C2CCCCC2)c2ccc(C(=O)O)cc21)C(=O)Nc1ccc(/C=C/C(=O)O)cc1 [Example 1051] | < 0.2 µM |
| O=C(Cn1c(-c2ccoc2)c(C2CCCCC2)c2ccc(C(=O)O)cc21)N[C@@H](Cc1ccc(O)cc1)C(=O)O [Example 1055] | < 0.2 µM |
| O=C(O)c1ccc2c(C3CCCCC3)c(-c3cc4ccccc4s3)n(CC(=O)N3CCC(N4CCCC4)CC3)c2c1 [Example 1049] | 0.2 to 1 µM |
| O=C(O)c1ccc2c(C3CCCCC3)c(-c3cnccn3)n(CC(=O)N3CCC(N4CCCC4)CC3)c2c1 [Example 1045] | < 0.2 µM |
| CCN(CC)CCN(CC)C(=O)Cn1c(-c2ccoc2)c(C2CCCCC2)c2ccc(C(=O)O)cc21 [Example 1007] | < 0.2 µM |
| O=C(O)c1ccc2c(C3CCCCC3)c(-c3cc4ccccc4s3)n(CC(=O)N3CCOCC3)c2c1 [Example 1042] | 0.2 to 1 µM |
| O=C(Cn1c(-c2ccoc2)c(C2CCCCC2)c2ccc(C(=O)O)cc21)NCc1ccco1 [Example 1056] | 0.2 to 1 µM |
| CN(C)C(=O)CN(C)C(=O)Cn1c(-c2ccoc2)c(C2CCCCC2)c2ccc(C(=O)O)cc21 [Example 1121] | < 0.2 µM |
| O=C(Cn1c(-c2ccoc2)c(C2CCCCC2)c2ccc(C(=O)O)cc21)NCc1ccccc1 [Example 1063] | 0.2 to 1 µM |
| O=C(O)c1ccc2c(C3CCCCC3)c(-c3ccoc3)n(CC(=O)N3CCC(C(=O)O)CC3)c2c1 [Example 1058] | < 0.2 µM |
| CC(C)N(C(=O)Cn1c(-c2ccoc2)c(C2CCCCC2)c2ccc(C(=O)O)cc21)C1CCCCC1 [Example 1091] | 0.2 to 1 µM |
| O=C(O)/C=C/c1ccc(NC(=O)Cn2c(-c3ccoc3)c(C3CCCCC3)c3ccc(C(=O)O)cc32)cc1 [Example 1071] | 0.2 to 1 µM |
| O=C(O)/C=C/c1ccc(NC(=O)[C@@]2(NC(=O)Cn3c(-c4ccoc4)c(C4CCCCC4)c4ccc(C(=O)O)cc43)CCNC2)cc1 [Example 1079] | < 0.2 µM |
| O=C(O)c1ccc2c(C3CCCCC3)c(-c3ccc(Br)cn3)n(CC(=O)N3CCC[C@H]3C(=O)O)c2c1 [Example 1137] | 0.2 to 1 µM |

same assay, conditions: Table 2; HCV NS5B polymerase

| Structure (SMILES) | IC50 |
| --- | --- |
| O=C(NS(=O)(=O)c1ccc2ccccc2c1)c1ccc2c(C3CCCCC3)c(-c3ccoc3)n(CC(=O)N3CCOCC3)c2c1 [Example 2007] | < 0.2 µM |
| Cc1ccccc1S(=O)(=O)NC(=O)c1ccc2c(C3CCCCC3)c(-c3ccoc3)n(CC(=O)N3CCOCC3)c2c1 [Example 2016] | < 0.2 µM |
| O=C(NS(=O)(=O)CC(F)(F)F)c1ccc2c(C3CCCCC3)c(-c3ccoc3)n(CC(=O)N3CCOCC3)c2c1 [Example 2027] | < 0.2 µM |
| COc1cc(C)ccc1S(=O)(=O)NC(=O)c1ccc2c(C3CCCCC3)c(-c3ccoc3)n(CC(=O)N3CCOCC3)c2c1 [Example 2040] | < 0.2 µM |

same assay, conditions: Table 3; HCV NS5B polymerase

| Structure (SMILES) | IC50 |
| --- | --- |
| O=C(O)/C=C/c1ccc(NC(=O)C2(NC(=O)c3ccc4c(C5CCCC5)c(-c5ccccn5)n(CC(=O)N5CCCC5)c4c3)CCC2)cc1 [Example 3010] | < 0.2 µM |
| O=C(O)/C=C/c1ccc(NC(=O)C2(NC(=O)c3ccc4c(C5CCCCC5)c(-c5ccccn5)n(CC(=O)N5CCCC5)c4c3)CCC2)cc1 [Example 3008] | < 0.2 µM |
| Nc1nc(-c2ccc(NC(=O)C3(NC(=O)c4ccc5c(C6CCCC6)c(-c6ccoc6)n(CC(=O)N6CCOCC6)c5c4)CCCNC3)cc2)cs1 (centres unmarked) [Example 3001] | < 0.2 µM |

same assay, conditions: Table 4; class ranges

| Structure (SMILES) | IC50 |
| --- | --- |
| O=C(NCCc1ccncc1)c1ccc2c(C3CCCCC3)c(-c3ccoc3)n(CC(=O)N3CCOCC3)c2c1 [Example 4050] | 0.2 to 1 µM |
| CC(C)(NC(=O)c1ccc2c(C3CCCCC3)c(-c3ccoc3)n(CC(=O)N3CCOCC3)c2c1)C(=O)O [Example 4087] | < 0.2 µM |
| CN1CCN(C(=O)Cn2c(-c3ccoc3)c(C3CCCCC3)c3ccc(C(=O)NC4CC4c4ccccc4)cc32)CC1 (racemic) [Example 4038] | 0.2 to 1 µM |
| COc1ccc([C@@H](C)NC(=O)c2ccc3c(C4CCCCC4)c(-c4ccoc4)n(CC(=O)N4CCN(C)CC4)c3c2)cc1 [Example 4043] | < 0.2 µM |
| COc1ccc(CNC(=O)c2ccc3c(C4CCCCC4)c(-c4ccoc4)n(CC(=O)N4CCN(C)CC4)c3c2)cc1OC [Example 4003] | < 0.2 µM |
| COc1cccc([C@@H](C)NC(=O)c2ccc3c(C4CCCCC4)c(-c4ccoc4)n(CC(=O)N4CCN(C)CC4)c3c2)c1 [Example 4042] | < 0.2 µM |
| Cc1cnc(CNC(=O)c2ccc3c(C4CCCCC4)c(-c4ccoc4)n(CC(=O)N4CCN(C)CC4)c3c2)cn1 [Example 4044] | 0.2 to 1 µM |
| CN1CCN(C(=O)Cn2c(-c3ccoc3)c(C3CCCCC3)c3ccc(C(=O)NC(C)(C)Cc4ccccc4)cc32)CC1 [Example 4037] | 1 to 10 µM |
| NC(=O)C1(NC(=O)c2ccc3c(C4CCCCC4)c(-c4ccoc4)n(CC(=O)N4CCOCC4)c3c2)CCCC1 [Example 4072] | < 0.2 µM |
| CN1CCN(C(=O)Cn2c(-c3ccoc3)c(C3CCCCC3)c3ccc(C(=O)NC4CCCC4)cc32)CC1 [Example 4008] | 0.2 to 1 µM |
| CN(C)C(=O)C1(NC(=O)c2ccc3c(C4CCCCC4)c(-c4ccoc4)n(CC(=O)N4CCC(N5CCCC5)CC4)c3c2)CCCC1 [Example 4095] | < 0.2 µM |
| CN(C)C(=O)Cn1c(-c2ccoc2)c(C2CCCCC2)c2ccc(C(=O)NCc3ccc4c(c3)OCO4)cc21 [Example 4052] | 0.2 to 1 µM |
| CN1CCN(C(=O)Cn2c(-c3ccoc3)c(C3CCCCC3)c3ccc(C(=O)NCc4ccc(S(N)(=O)=O)cc4)cc32)CC1 [Example 4032] | < 0.2 µM |
| Cn1c(C2(NC(=O)c3ccc4c(C5CCCCC5)c(-c5ccoc5)n(CC(=O)N5CCOCC5)c4c3)CCC2)nc2ccc(C=CC(=O)O)cc21 [Example 4082] | < 0.2 µM |
| CN1CCN(C(=O)Cn2c(-c3ccoc3)c(C3CCCCC3)c3ccc(C(=O)NC4CCS(=O)(=O)C4)cc32)CC1 (centres unmarked) [Example 4033] | 1 to 10 µM |
| CN1CCN(C(=O)Cn2c(-c3ccoc3)c(C3CCCCC3)c3ccc(C(=O)NC4CCN(Cc5ccccc5)C4)cc32)CC1 (centres unmarked) [Example 4036] | 0.2 to 1 µM |
| CN(C)C(=O)C1(NC(=O)c2ccc3c(C4CCCCC4)c(-c4ccoc4)n(CC(=O)N4CCOCC4)c3c2)CCC1 [Example 4093] | < 0.2 µM |
| CN1CCN(C(=O)Cn2c(-c3ccoc3)c(C3CCCCC3)c3ccc(C(=O)NCc4ccccn4)cc32)CC1 [Example 4015] | 0.2 to 1 µM |
| O=C(NCc1ccc(O)c(O)c1)c1ccc2c(C3CCCCC3)c(-c3ccoc3)n(CC(=O)N3CCOCC3)c2c1 [Example 4062] | < 0.2 µM |
| O=C(NC1(C(=O)O)CCCCC1)c1ccc2c(C3CCCCC3)c(-c3ccoc3)n(CC(=O)N3CCOCC3)c2c1 [Example 4078] | 0.2 to 1 µM |
| CN1CCN(C(=O)Cn2c(-c3ccoc3)c(C3CCCCC3)c3ccc(C(=O)NCCc4ccccc4)cc32)CC1 [Example 4026] | 1 to 10 µM |
| C#CC1(NC(=O)c2ccc3c(C4CCCCC4)c(-c4ccoc4)n(CC(=O)N4CCOCC4)c3c2)CCCCC1 [Example 4071] | 0.2 to 1 µM |

same assay, conditions: Table 5; HCV NS5B polymerase

| Structure (SMILES) | IC50 |
| --- | --- |
| CC(C(=O)N1CCOCC1)n1c(-c2ccoc2)c(C2CCCCC2)c2ccc(C(=O)O)cc21 (centres unmarked) [Example 5008] | 1 to 10 µM |

same assay, conditions: Table 6; HCV NS5B polymerase

| Structure (SMILES) | IC50 |
| --- | --- |
| O=C(O)c1ccc2c(c1)c(C1CCCCC1)c(-c1ccoc1)n2CC(=O)N1CCC(N2CCCC2)CC1 [Example 6002] | < 0.2 µM |

same assay, conditions: Table 7; class ranges

| Structure (SMILES) | IC50 |
| --- | --- |
| Cc1cccc(CNC(=O)c2ccc3c(c2)c(C2CCCCC2)c(-c2ccoc2)n3CC(=O)N2CCC(N3CCCC3)CC2)c1 [Example 7029] | 1 to 10 µM |
| O=C(NCc1ccc(F)c(C(F)(F)F)c1)c1ccc2c(c1)c(C1CCCCC1)c(-c1ccoc1)n2CC(=O)N1CCC(N2CCCC2)CC1 [Example 7042] | 1 to 10 µM |
| Cc1c(C(=O)O)ccc2c(C3CCCCC3)c(-c3ccoc3)n(CC(=O)N3CCOCC3)c12 [Example 7005] | < 0.2 µM |
| O=C(NC1CCN(Cc2ccccc2)C1)c1ccc2c(c1)c(C1CCCCC1)c(-c1ccoc1)n2CC(=O)N1CCC(N2CCCC2)CC1 (centres unmarked) [Example 7040] | 1 to 10 µM |
| NC(=O)C1CCN(C(=O)c2ccc3c(c2)c(C2CCCCC2)c(-c2ccoc2)n3CC(=O)N2CCC(N3CCCC3)CC2)CC1 [Example 7035] | 1 to 10 µM |
| CC(C)(C)NC(=O)[C@@H]1Cc2ccccc2CN1C(=O)c1ccc2c(c1)c(C1CCCCC1)c(-c1ccoc1)n2CC(=O)N1CCC(N2CCCC2)CC1 [Example 7061] | 1 to 10 µM |
| COc1cc2c(C3CCCCC3)c(-c3ccoc3)n(CC(=O)N3CCC(N4CCCC4)CC3)c2cc1C(=O)O [Example 7003] | 0.2 to 1 µM |
| Cc1c(C(=O)O)ccc2c(C3CCCCC3)c(-c3ccoc3)n(CC(=O)N3CCC(N4CCCC4)CC3)c12 [Example 7004] | < 0.2 µM |
